Each compound was assayed against B-Raf (V600E)-kinase (Homo sapiens (Human), UniProt P15056, V600E) (assay: Kinase test B-Raf (V600E)). Conditions: 250 μM ATP, biotinylated MEK1 substrate.
Type: biochemical
Protocol: Kinase test B-Raf (V600E)
In a dilution series 10 μL/well of test substance solution are placed in a multiwell plate. The dilution series is selected so that generally a range of concentrations of 2 μM to 0.119 nM or 0.017 nM is covered. If necessary the initial concentration of 2 μM is changed to 50 μM, 10 μM, 0.4 μM or 0.2857 μM and further dilution is carried out accordingly. The final concentration of DMSO is 5%. 10 μL/well of the B-Raf (V600E)-kinase solution are pipetted in (containing 0.5 ng B-Raf (V600E)-kinase, e.g. from Upstate) in 20 mM Tris-HCl pH 7.5, 0.1 mM EDTA, 0.1 mM EGTA, 0.286 mM sodium orthovanadate, 10% glycerol, 1 mg/mL bovine serum albumin, 1 mM dithiothreitol) and the mixture is incubated for 1 h at RT with shaking. The kinase reaction is started by the addition of 20 μL/well ATP solution [final concentration: 250 μM ATP, 30 mM Tris-HCl pH 7.5, 0.02% Brij, 0.2 mM sodium orthovanadate, 10 mM magnesium acetate, 0.1 mM EGTA, phosphatase cocktail (Sigma, #P2850, dilution recommended by the manufacturer)] and 10 μL/well MEK1 solution [containing 50 ng biotinylated MEK1 (prepared from purified MEK1 according to standard procedure, e.g. with EZ-Link Sulpho-NHS-LC-Biotin reagent, Pierce, #21335)] and carried out for 60 min at RT with constant shaking. The reaction is stopped by the addition of 12 μL/well of a 100 mM EDTA solution and incubation is continued for a further 5 min. 55 μL/well of the reaction solution are transferred into a streptavidin-coated plate (e.g. Streptawell HighBond, Roche, #11989685001) and gently shaken for 1 h at RT in order to bind biotinylated MEK1 to the plate. After elimination of the liquid the plate is washed five times with 200 μL/well of 1×PBS and 100 μL/well solution of primary antibody plus europium-labelled secondary antibody [Anti Phospho-MEK (Ser217/221), Cell Signaling, #9121 and Eu—N1 labelled goat-anti-rabbit antibody, Perkin Elmer, #AD0105] is added, the primary antibody is diluted 1:2000 and the secondary antibody is diluted to 0.4-0.5 μg/mL in Delfia Assay Buffer (Perkin Elmer, #1244-111). After 1 h shaking at RT the solution is poured away and washed five times with 200 μL/well Delfia Wash Buffer (Perkin Elmer, #4010-0010/#1244-114). After the addition of 200 μL/well Enhancement Solution (Perkin Elmer, #4001-0010/#1244-105) the mixture is shaken for 10 min at RT and then measured in a Wallac Victor using the program “Delfia Time Resolved Fluorescence (Europium)”. IC50 values are obtained from these dosage-activity curves using a software program (GraphPadPrizm).

B-Raf (V600E)-kinase, sequence (P15056 whole entry V600E): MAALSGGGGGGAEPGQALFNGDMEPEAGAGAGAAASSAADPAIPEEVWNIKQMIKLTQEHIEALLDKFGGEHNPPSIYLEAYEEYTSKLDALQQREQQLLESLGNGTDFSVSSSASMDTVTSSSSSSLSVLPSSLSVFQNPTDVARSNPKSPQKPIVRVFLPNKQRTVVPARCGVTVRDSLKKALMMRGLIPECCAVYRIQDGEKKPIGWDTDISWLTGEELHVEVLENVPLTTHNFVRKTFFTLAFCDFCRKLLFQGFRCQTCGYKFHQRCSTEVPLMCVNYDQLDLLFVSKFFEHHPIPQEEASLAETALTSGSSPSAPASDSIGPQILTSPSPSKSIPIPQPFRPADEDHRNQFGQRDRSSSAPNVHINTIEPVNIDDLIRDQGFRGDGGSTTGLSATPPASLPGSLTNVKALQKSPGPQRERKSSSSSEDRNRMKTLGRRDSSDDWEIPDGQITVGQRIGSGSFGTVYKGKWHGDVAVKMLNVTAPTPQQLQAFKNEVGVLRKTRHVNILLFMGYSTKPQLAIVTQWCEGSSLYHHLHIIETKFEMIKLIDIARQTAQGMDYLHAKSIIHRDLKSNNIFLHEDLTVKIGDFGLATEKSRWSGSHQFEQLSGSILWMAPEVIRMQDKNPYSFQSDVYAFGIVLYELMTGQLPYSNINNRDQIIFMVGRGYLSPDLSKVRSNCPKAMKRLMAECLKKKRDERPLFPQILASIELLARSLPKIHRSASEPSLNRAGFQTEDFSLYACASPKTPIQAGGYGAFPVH

Row | Structure (SMILES) | IC50 [nM]
1 | CCCS(=O)(=O)Nc1ccc(F)c(-n2cc(-c3cncc(OC)c3)c3nc(N(C)C4CCN(C)CC4)cnc32)c1F [I-5] | 16
2 | CCCS(=O)(=O)Nc1ccc(F)c(-n2cc(-c3cncc(OC)c3)c3nc(N(C)C4CCN(C)CC4)ncc32)c1F [I-7] | 7
3 | CCCS(=O)(=O)Nc1ccc(F)c(-n2cc(-c3cncnc3)c3nc(N(C)C4CCN(C)CC4)ncc32)c1F [I-8] | 4
4 | CCCS(=O)(=O)Nc1ccc(F)c(-n2cc(-c3cncnc3)c3nc(N(C)C4CCN(CC)CC4)ncc32)c1F [I-9] | 16
5 | CCCS(=O)(=O)Nc1ccc(F)c(-n2cc(-c3cncnc3)c3nc(N(C)C4CCN(CCOC)CC4)ncc32)c1F [I-11] | 42
6 | CCCS(=O)(=O)Nc1ccc(F)c(-n2cc(-c3cncnc3)c3nc(N(C)C4CCNCC4)ncc32)c1F [I-12] | 41

The next lines start with the values.

Row | IC50 [nM] | Structure (SMILES)
7 | 297 | CCCS(=O)(=O)Nc1ccc(F)c(-n2cc(-c3cncc(OC)c3)c3nc(N4CCN(C)CC4)ccc32)c1F [I-3]
8 | 125 | CCCS(=O)(=O)Nc1ccc(F)c(-n2cc(-c3cncc(OC)c3)c3nc(N4CCN(CCOC)CC4)ccc32)c1F [I-4]
9 | 1610 | CCCS(=O)(=O)Nc1ccc(F)c(-n2cc(-c3cncc(OC)c3)c3nc(N4CCN(C)CC4)ncc32)c1F [I-6]
10 | 29 | CCCS(=O)(=O)Nc1ccc(F)c(-n2cc(-c3cncnc3)c3nc(N(C)C4CCN(C5CC5)CC4)ncc32)c1F [I-10]

These compounds were tested on SK-MEL-28 cells (assay: Inhibition of the proliferation of cultivated human melanoma cells (SK-MEL-28, B-RAF V600E mutated)). Conditions: 72 h incubation, AlamarBlue.
Type: cell-based
Protocol: Measurement of the Inhibition of the Proliferation of Cultivated Human Melanoma cells (SK-MEL-28, B-RAF^V600E Mutated)
SK-MEL-28 cells are placed in 96-well flat bottomed dishes in a density of 2500 cells per well in supplemented MEM medium (see above) and incubated overnight in an incubator (at 37° C. and 5% CO2). […] After an incubation period of a further 72 h 20 μL AlamarBlue reagent (Serotec Ltd., #BUF012B) are added to each well and the cells are incubated for a further 3-6 h. The colour change of the AlamarBlue reagent is determined in a fluorescence spectrophotometer (e.g. Gemini, Molecular Devices). EC50 values are calculated using a software program (GraphPadPrizm).

Row | Structure (SMILES) | EC50 [nM]
11 | CCCS(=O)(=O)Nc1ccc(F)c(-n2cc(-c3cncc(OC)c3)c3nc(N(C)C4CCN(C)CC4)cnc32)c1F [I-5] | 41
12 | CCCS(=O)(=O)Nc1ccc(F)c(-n2cc(-c3cncc(OC)c3)c3nc(N(C)C4CCN(C)CC4)ncc32)c1F [I-7] | 40
13 | CCCS(=O)(=O)Nc1ccc(F)c(-n2cc(-c3cncnc3)c3nc(N(C)C4CCN(C)CC4)ncc32)c1F [I-8] | 6
14 | CCCS(=O)(=O)Nc1ccc(F)c(-n2cc(-c3cncnc3)c3nc(N(C)C4CCN(CC)CC4)ncc32)c1F [I-9] | 11
15 | CCCS(=O)(=O)Nc1ccc(F)c(-n2cc(-c3cncnc3)c3nc(N(C)C4CCN(CCOC)CC4)ncc32)c1F [I-11] | 21
16 | CCCS(=O)(=O)Nc1ccc(F)c(-n2cc(-c3cncnc3)c3nc(N(C)C4CCNCC4)ncc32)c1F [I-12] | 60
17 | CCCS(=O)(=O)Nc1ccc(F)c(-n2cc(-c3cncnc3)c3nc(N(C)C4CCNCC4)ccc32)c1F [I-14] | 6
18 | O=S(=O)(CC1CCCO1)Nc1ccc(F)c(-n2cc(-c3cncnc3)c3nc(N4CCNCC4)ccc32)c1F (stereo not drawn) [I-15] | 181
19 | CN1CCN(c2ccc3c(n2)c(-c2cncnc2)cn3-c2c(F)ccc(NS(=O)(=O)CC3CCCO3)c2F)CC1 (stereo not drawn) [I-17] | 386
20 | CN(c1ncc2c(n1)c(-c1cncnc1)cn2-c1c(F)ccc(NS(=O)(=O)CC2CC2)c1F)C1CCNCC1 [I-19] | 110
21 | CCCS(=O)(=O)Nc1ccc(F)c(-n2cc(-c3cncnc3)c3nc(N4CCN(CC)CC4)ccc32)c1F [I-23] | 40
22 | CCCS(=O)(=O)Nc1ccc(F)c(-n2cc(-c3cncnc3)c3nc(N(C)C4CCN(C)CC4)ccc32)c1F [I-30] | 2
23 | CN1CCC(N(C)c2ccc3c(n2)c(-c2cncnc2)cn3-c2c(F)ccc(NS(=O)(=O)C3CC3)c2F)CC1 [I-32] | 2
24 | CCCS(=O)(=O)Nc1ccc(F)c(-n2cc(-c3cncnc3)c3nc(N4CCNCC4)ccc32)c1F [I-33] | 14
25 | CCCN1CCC(N(C)c2ccc3c(n2)c(-c2cncnc2)cn3-c2c(F)ccc(NS(=O)(=O)CCC)c2F)CC1 [I-34] | 2
26 | CCCS(=O)(=O)Nc1ccc(F)c(-n2cc(-c3cncnc3)c3nc(N(C)C4CCN(CC(C)(C)O)CC4)c(F)cc32)c1F [I-36] | 7
27 | CCCS(=O)(=O)Nc1ccc(F)c(-n2cc(-c3cncnc3)c3nc(N(C)C4CCN(C5COC5)CC4)ncc32)c1F [I-38] | 5
28 | CN(c1ncc2c(n1)c(-c1cncnc1)cn2-c1c(F)ccc(NS(=O)(=O)c2ccoc2)c1F)C1CCN(CC2CC2)CC1 [I-39] | 0.47
29 | [2H]C([2H])([2H])N(c1ccc2c(n1)c(-c1cncnc1)cn2-c1c(F)ccc(NS(=O)(=O)CCC)c1F)C1CCN(CC)CC1 [I-41] | 1
30 | CCCS(=O)(=O)Nc1ccc(F)c(-n2cc(-c3cncnc3)c3nc(N(C)C4CCN(CC)CC4)ccc32)c1F [I-42] | 0.84
31 | CCCS(=O)(=O)Nc1ccc(F)c(-n2cc(-c3cncnc3)c3nc(N(C)C4CCN(CC5CC5)CC4)ncc32)c1F [I-43] | 5
32 | [2H]C([2H])([2H])N(c1ccc2c(n1)c(-c1cncnc1)cn2-c1c(F)ccc(NS(=O)(=O)CCC)c1F)C1CCN(C([2H])([2H])C([2H])([2H])[2H])CC1 [I-44] | 1
33 | [2H]C([2H])([2H])C([2H])([2H])N1CCC(N(C)c2ccc3c(n2)c(-c2cncnc2)cn3-c2c(F)ccc(NS(=O)(=O)CCC)c2F)CC1 [I-46] | 3
34 | CCCS(=O)(=O)Nc1ccc(F)c(-n2cc(-c3cncnc3)c3nc(N(C)C4CCN(CC)CC4)ccc32)c1Cl [I-47] | 2

Next, values leading:

Row | EC50 [nM] | Structure (SMILES)
35 | 114 | CCCS(=O)(=O)Nc1ccc(F)c(-n2cc(-c3cncc(OC)c3)c3nc(N4CCN(C)CC4)ccc32)c1F [I-3]
36 | 63 | CCCS(=O)(=O)Nc1ccc(F)c(-n2cc(-c3cncc(OC)c3)c3nc(N4CCN(CCOC)CC4)ccc32)c1F [I-4]
37 | 121 | CCCS(=O)(=O)Nc1ccc(F)c(-n2cc(-c3cncc(OC)c3)c3nc(N4CCN(C)CC4)ncc32)c1F [I-6]
38 | 86 | CCCS(=O)(=O)Nc1ccc(F)c(-n2cc(-c3cncnc3)c3nc(N(C)C4CCN(C(=O)OC(C)(C)C)CC4)ccc32)c1F [I-13]
39 | 491 | CCN1CCN(c2ccc3c(n2)c(-c2cncnc2)cn3-c2c(F)ccc(NS(=O)(=O)CC3CCCO3)c2F)CC1 (stereo not drawn) [I-16]
40 | 90 | CCN1CCN(c2ccc3c(n2)c(-c2cncnc2)cn3-c2c(F)ccc(NS(=O)(=O)CC3CC3)c2F)CC1 [I-18]
41 | 72 | CN1CCN(c2ccc3c(n2)c(-c2cncnc2)cn3-c2c(F)ccc(NS(=O)(=O)CC3CC3)c2F)CC1 [I-20]
42 | 89 | CCCS(=O)(=O)Nc1ccc(F)c(-n2cc(-c3cncnc3)c3nc(N4CCN(CC)CC4)ncc32)c1F [I-21]
43 | 112 | CN(c1ccc2c(n1)c(-c1cncnc1)cn2-c1c(F)ccc(NS(=O)(=O)C2CC2)c1F)C1CCN(C(=O)OC(C)(C)C)CC1 [I-22]
44 | 68 | CCCS(=O)(=O)Nc1ccc(F)c(-n2cc(-c3cncnc3)c3nc(N4CCN(C)CC4)ncc32)c1F [I-24]
45 | 27 | O=S(=O)(CC1CC1)Nc1ccc(F)c(-n2cc(-c3cncnc3)c3nc(N4CCNCC4)ccc32)c1F [I-25]
46 | 73 | CCCS(=O)(=O)Nc1ccc(F)c(-n2cc(-c3cncnc3)c3nc(N4CCNCC4)ncc32)c1F [I-26]
47 | 54 | CCCS(=O)(=O)Nc1ccc(F)c(-n2cc(-c3cncnc3)c3nc(N4CCN(CC5CC5)CC4)ncc32)c1F [I-27]
48 | 7 | CN(c1ncc2c(n1)c(-c1cncnc1)cn2-c1c(F)ccc(NS(=O)(=O)CC2CC2)c1F)C1CCN(CC2CC2)CC1 [I-28]
49 | 41 | CCCS(=O)(=O)Nc1ccc(F)c(-n2cc(-c3cncnc3)c3nc(N4CCN(C5CC5)CC4)ccc32)c1F [I-29]
50 | 31 | CCCS(=O)(=O)Nc1ccc(F)c(-n2cc(-c3cncnc3)c3nc(N4CCN(CC5CC5)CC4)ccc32)c1F [I-31]
51 | 6 | CCCS(=O)(=O)Nc1ccc(F)c(-n2cc(-c3cncnc3)c3nc(N(C)C4CCN(CCOC)CC4)c(F)cc32)c1F [I-35]
52 | 2 | CCCS(=O)(=O)Nc1ccc(F)c(-n2cc(-c3cncnc3)c3nc(N(C)C4CCN(CC5CC5)CC4)ccc32)c1F [I-37]
53 | 3 | CCCS(=O)(=O)Nc1ccc(F)c(-n2cc(-c3cncnc3)c3nc(N(C)C4CCN(CC)CC4)c(F)cc32)c1F [I-40]
54 | 5 | CCCS(=O)(=O)Nc1ccc(F)c(-n2cc(-c3cncnc3)c3nc(N(C)C4CCN(CC(C)(C)O)CC4)ccc32)c1F [I-45]
